This is an account of results in patent US6080859A, “Pyrroloindole derivatives and intermediates in producing the same” (priority 1997, dated 2000).

Counter-ions that a name gives are not always drawn. Like-named read-outs stand apart in the source and are kept apart here.

Data set [1] in a line: Decomposition reaction under chemical conditions (half life in buffer solution of pH 7.4, HPLC). The data set is classed as physicochemical. To be noted: ph 7.4 buffer/dma, pH 7.4 buffer / N,N-dimethylacetamide 50 v/v%, 37° C. As for the experimental part: Decomposition reaction under chemical conditions:
A buffer solution of pH 7.4 was prepared by mixing suitably an aqueous 0.1 M citric acid solution and an aqueous 0.2 M disodium hydrogenphosphate solution. The buffer solution was diluted tenfold with water. This buffer solution was further dissolved in N,N-dimethylacetamide at a concentration of 50 v/v%, and its pH was adjusted to 7.4 by adding suitable amount of aqueous 0.1 M citric acid solution to prepare a buffer solution. The test compounds were dissolved respectively in the buffer solution at a concentration of 5 μM to prepare the test sample solutions. The test sample solutions were placed respectively in a glass vial, and the glass vials were kept at 37° C. in a thermostat. The change of the concentration of remaining test compounds with lapse of time was determined quantitatively intermittently by high performance liquid chromatography (HPLC) to measure the half life (t1/2 : hours).

Data set [2] deals with M5076/ADR cells (adriamycin-resistant strain). Put plainly: Evaluation with mouse bearing M5076/ADR cells (adriamycin-resistant strain) transplanted subcutaneously. The note with it: 1.0 mg/kg, single injection into tail vein nine days after transplantation; tumor weighed 13 days after injection. Type of data set: in vivo, mouse (female, BDFI strain). The method, then:
Evaluation with mouse bearing M5076/ADR cells (adriamycin-resistant strain) transplanted subcutaneously:
M5076/ADR cells (adriamycin-resistant strain) were transplanted subcutaneously at the axillary region of female mice (BDFI strain, 8 week age) in an amount of 3.0×10^6 cells for an individual mouse. Nine days after the transplantation, the test compound solution was injected once into the tail vein. After 13 days from the injection, the tumor was excised and weighed. The antitumor activity was evaluated by the ratio (T/C) of the average tumor weight (T) of the administrated group to the average tumor weight (C) of control group to which solvent was administrated.

Where [3] appears, read: read-out: Half life (t1/2) (converted).
[4] abbreviates: * Average of the half lives of the diastereomers, read-out: Half life (t1/2), average of the half lives of the diastereomers (converted).

As for `COC(=O)c1c(C(F)(F)F)[nH]c2c(OC(=O)N3CCC[C@H]3CN3CCCC3)cc3c(c12)[C@H](CCl)CN3C(=O)c1cc2cc(NC(=O)c3cc4cccc(OC)c4o3)ccc2[nH]1` [Example 3, methyl (1S)-chloromethyl-5-{[(2S)-(pyrrolidin-l-ylmethyl)pyrrolidin-1-ylcarbonyl]oxy}-3-[5-(7-methoxybenzofuran-2-ylcarbonyl)amino-1H-indol-2-ylcarbonyl]-7-trifluoromethyl-1,2,3,6-tetrahydropyrrolo[3,2-e]indole-8-carboxylate], the half-life at 5 µM in data set [1] (setting [3]) was 1 h.
Turning to `COC(=O)c1c(C(F)(F)F)[nH]c2c(OC(=O)N3CCN(C)CC3CO)cc3c(c12)[C@H](CCl)CN3C(=O)c1cc2cc(NC(=O)c3cc4cccc(OC)c4o3)ccc2[nH]1` (stereo partly drawn) [Example 5, hydrochloride of methyl (1S)-chloromethyl-5-{[(2RS)-hydroxymethyl-4-methylpiperazin-1-ylcarbonyl]oxy}-3-[5-(7-methoxybenzofuran-2-ylcarbonyl)amino-1H-indol-2-ylcarbonyl]-7-trifluoromethyl-1,2,3,6-tetrahydropyrrolo[3,2-e]indole-8-carboxylate], in data set [1] (setting [4]), the half-life at 5 µM was 1.7 h. For the same compound, the “T/C (ratio of average tumor weight of administrated group to control group)” value in data set [2] stood at 0.01.
`COC(=O)c1c(C(F)(F)F)[nH]c2c(OC(=O)N3CCC[C@H]3CO)cc3c(c12)[C@H](CCl)CN3C(=O)c1cc2cc(NC(=O)c3cc4cccc(OC)c4o3)ccc2[nH]1` [Example 1, methyl (1S)-chloromethyl-5-{[(2S)-hydroxymethylpyrrolidin-1-ylcarbonyl]oxy}-3-[5-(7-methoxybenzofuran-2-ylcarbonyl)amino-1H-indol-2-ylcarbonyl]-7-trifluoromethyl-1,2,3,6-tetrahydropyrrolo[3,2-e]indole-8-carboxylate]: the half-life at 5 µM in data set [1] (setting [3]) was over 8 h.
Consider `COC(=O)c1c(C(F)(F)F)[nH]c2c(OC(=O)N3CCCCC3CO)cc3c(c12)[C@H](CCl)CN3C(=O)c1cc2cc(NC(=O)c3cc4cccc(OC)c4o3)ccc2[nH]1` (mixture of isomers) [Example 4, methyl (1S)-chloromethyl-5-{[(2RS)-hydroxymethylpiperidin-1-ylcarbonyl]oxy}-3-[5-(7-methoxybenzofuran-2-ylcarbonyl)amino-1H-indol-2-ylcarbonyl]-7-trifluoromethyl-1,2,3,6-tetrahydropyrrolo[3,2-e]indole-8-carboxylate], for which the half-life at 5 µM in data set [1] (setting [4]) was over 8 h. In data set [2], the “T/C (ratio of average tumor weight of administrated group to control group)” value came out at 0.01.
The matching figures for `COC(=O)c1c(C(F)(F)F)[nH]c2c(OC(=O)N3CCN(C)CC3CCO)cc3c(c12)[C@H](CCl)CN3C(=O)c1cc2cc(NC(=O)c3cc4cccc(OC)c4o3)ccc2[nH]1` (stereo partly drawn) [Example 6, hydrochloride of methyl (1S)-chloromethyl-5-{[(2RS)-hydroxyethyl-4-methylpiperazin-1-ylcarbonyl]oxy}-3-[5-(7-methoxybenzofuran-2-ylcarbonyl)amino-1H-indol-2-ylcarbonyl]-7-trifluoromethyl-1,2,3,6-tetrahydropyrrolo[3,2-e]indole-8-carboxylate]: 5.8 h and 0.02.
With `COC(=O)c1c(C(F)(F)F)[nH]c2c(OC(=O)N3CCOCC3CO)cc3c(c12)[C@H](CCl)CN3C(=O)c1cc2cc(NC(=O)c3cc4cccc(OC)c4o3)ccc2[nH]1` (mixture of isomers) [Example 7, methyl (1S)-chloromethyl-5-{[(3RS)-hydroxymethylmorpholin-4-ylcarbonyl]oxy}-3-[5-(7-methoxybenzofuran-2-ylcarbonyl)amino-1H-indol-2-ylcarbonyl]-7-trifluoromethyl-1,2,3,6-tetrahydropyrrolo[3,2-e]indole-8-carboxylate], the half-life at 5 µM in data set [1] (setting [4]) is 1.7 h.
Turning to `COC(=O)c1c(C(F)(F)F)[nH]c2c(OC(=O)N3C[C@H](O)C[C@H]3CO)cc3c(c12)[C@H](CCl)CN3C(=O)c1cc2cc(NC(=O)c3cc4cccc(OC)c4o3)ccc2[nH]1` [Example 2, methyl (1S) -chloromethyl-5-{[(4R)-hydroxy-(2S)-hydroxymethylpyrrolidin-1-ylcarbonyl]oxy}-3-[5-(7-methoxybenzofuran-2-ylcarbonyl)amino-1H-indol-2-ylcarbonyl]-7-trifluoromethyl-1,2,3,6-tetrahydropyrrolo[3,2-e]indole-8-carboxylate], in data set [1] (setting [3]), the half-life at 5 µM was over 8 h.
